Experimental data published in patent US9440957B2, “Compounds and compositions for modulating EGFR Activity” (Novartis AG, priority 2012, dated 2016).
Like-named read-outs stand apart in the source and are kept apart here.

Assays:
[1] = target: H3255 (EGFR L858R) (Homo sapiens, UniProt P00533, L858R); test: EGFR target modulation in H3255 cell line (phospho-EGFR Y1173 ELISA); format: cell-based
Procedure, shortened: (§1)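 3 h compound exposure of cells in 10% FBS/RPMI, 37 °C; lysis on ice 20 min; lysate captured overnight at 4 °C on anti-EGFR-coated plates; anti-rabbit-HRP, chemiluminescence.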

[2] = target: T1, EGFR(L858R/T790M) (Homo sapiens, UniProt P00533, L858R/T790M); test: EGFR biochemical assay (HTRF), IC50 determinations
T1 construct: purchased from Carna (GST-a.a. 669-1210)
T1 sequence (P00533 669-1210 T790M/L858R): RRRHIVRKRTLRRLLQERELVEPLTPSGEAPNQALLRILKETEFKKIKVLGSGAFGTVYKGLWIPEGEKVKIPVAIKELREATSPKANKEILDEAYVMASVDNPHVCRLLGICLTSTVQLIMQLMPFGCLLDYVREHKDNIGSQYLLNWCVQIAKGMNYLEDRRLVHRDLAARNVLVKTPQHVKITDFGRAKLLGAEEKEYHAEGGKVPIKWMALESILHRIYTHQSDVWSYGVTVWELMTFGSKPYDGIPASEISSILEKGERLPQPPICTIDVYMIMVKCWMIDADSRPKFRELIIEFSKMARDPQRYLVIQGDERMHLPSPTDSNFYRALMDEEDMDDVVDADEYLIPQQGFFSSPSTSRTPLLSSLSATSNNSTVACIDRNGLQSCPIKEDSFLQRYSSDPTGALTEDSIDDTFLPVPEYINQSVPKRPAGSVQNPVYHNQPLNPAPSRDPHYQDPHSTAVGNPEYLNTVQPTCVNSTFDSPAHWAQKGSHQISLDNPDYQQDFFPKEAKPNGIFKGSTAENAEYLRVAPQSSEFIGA
Procedure, shortened: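 Two formats were run: compound preincubated at room temperature with enzyme and biotin-TK peptide before ATP starts the reaction, or no preincubation with enzyme added last. Reactions ran 60 min at room temperature and were stopped with EDTA. Phosphopeptide was read by HTRF (PT66K/SAXL, 1 h).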

[3] = target: H1975 (EGFR L858/T790M) (Homo sapiens, UniProt P00533, L858R/T790M); test: EGFR target modulation in H1975 cell line (phospho-EGFR Y1173 ELISA); format: cell-based
Procedure, shortened: as §1

[4] = target: HEKn (EGFR WT) (Homo sapiens, UniProt P00533); test: EGFR target modulation in HEKn (EGFR-WT) cell line (phospho-EGFR Y1173 ELISA); format: cell-based; conditions: value outside parentheses
Chain of HEKn (EGFR WT) (P00533 25-1210): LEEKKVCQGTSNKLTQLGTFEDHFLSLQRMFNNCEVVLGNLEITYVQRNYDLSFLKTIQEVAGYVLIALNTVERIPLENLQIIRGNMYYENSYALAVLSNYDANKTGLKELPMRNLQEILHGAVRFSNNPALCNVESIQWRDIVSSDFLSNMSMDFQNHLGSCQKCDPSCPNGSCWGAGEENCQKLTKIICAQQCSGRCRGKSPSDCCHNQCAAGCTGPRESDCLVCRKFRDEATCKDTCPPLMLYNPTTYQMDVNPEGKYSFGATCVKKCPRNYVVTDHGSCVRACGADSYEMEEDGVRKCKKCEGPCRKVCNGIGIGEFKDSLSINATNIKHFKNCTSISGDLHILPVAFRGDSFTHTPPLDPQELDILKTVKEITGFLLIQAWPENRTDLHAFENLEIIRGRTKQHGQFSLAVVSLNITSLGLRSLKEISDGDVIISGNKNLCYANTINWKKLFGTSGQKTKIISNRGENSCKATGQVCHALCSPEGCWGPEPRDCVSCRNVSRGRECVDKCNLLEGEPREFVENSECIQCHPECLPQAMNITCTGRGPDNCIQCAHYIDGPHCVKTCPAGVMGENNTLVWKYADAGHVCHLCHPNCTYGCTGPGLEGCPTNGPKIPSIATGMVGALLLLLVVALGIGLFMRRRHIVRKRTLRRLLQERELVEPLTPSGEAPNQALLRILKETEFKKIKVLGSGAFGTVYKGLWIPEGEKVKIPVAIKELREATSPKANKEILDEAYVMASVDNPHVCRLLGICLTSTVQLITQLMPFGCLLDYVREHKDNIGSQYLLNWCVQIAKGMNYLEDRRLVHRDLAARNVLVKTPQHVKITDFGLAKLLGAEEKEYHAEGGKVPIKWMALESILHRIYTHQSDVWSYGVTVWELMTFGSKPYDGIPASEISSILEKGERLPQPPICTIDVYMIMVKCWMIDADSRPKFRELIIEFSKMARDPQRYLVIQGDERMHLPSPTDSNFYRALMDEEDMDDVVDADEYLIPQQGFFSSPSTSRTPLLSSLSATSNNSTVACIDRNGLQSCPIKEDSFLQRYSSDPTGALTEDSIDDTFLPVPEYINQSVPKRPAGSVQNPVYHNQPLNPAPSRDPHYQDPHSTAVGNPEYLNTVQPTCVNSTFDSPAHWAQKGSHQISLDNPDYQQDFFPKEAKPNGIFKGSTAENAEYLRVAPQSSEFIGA
Procedure, shortened: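 Read-out was Y1173 phosphorylation, measured by chemiluminescent ELISA with anti-EGFR capture of lysates. HEKn keratinocytes (wild-type EGFR) were treated with compound for 3 h.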

[5] = target: HaCaT (EGFR WT) (Homo sapiens, UniProt P00533); test: EGFR target modulation in HaCaT (EGFR-WT) cell line (phospho-EGFR Y1173 ELISA); format: cell-based; conditions: value in parentheses
Chain of HaCaT (EGFR WT) (P00533 25-1210): as above
Procedure: EGFR Target Modulation in HaCaT (EGFR-WT) Cell Line Tissue Culture. […] The serial diluted compounds were transferred to the plate containing cells by using a 50 nl Pin Head device (Perkin Elmer) and the cells were placed back in the incubator for 3 hours. […] Phospho-EGFR ([…]) ELISA. Solid white high-binding ELISA plates (Greiner #781074) were coated with 5 ug/ml anti-EGFR capture antibody (R&D Systems #AF231) overnight in 50 mM carbonate/bicarbonate pH 9.5 buffer. […] Wash steps were carried out with a Bio-Tek ELx405 SelectTM using 4 cycles of 100 ul TBS-T (20 mM Tris, 137 mM NaCl, 0.05% Tween-20) per well. […] Lysis was allowed to occur for 20 minutes on ice. A 25 ul aliquot was added to each well of the blocked ELISA plate and incubated overnight at 4° C. with gentle shaking. […] After washing, 1:2,000 anti-rabbit-HRP (Cell Signaling #7074) in 0.2% BSA/TBS-T was added and incubated for 1 hour at room temperature. Chemiluminescent detection was carried out with SuperSignal ELISA Pico substrate (ThermoScientific #37069). Signal was read on EnVision plate reader using built-in UltraLUM setting. Data Analysis. Control cells treated with EGF were set to 100% maximum response. […] With these parameters, the IC50's for each compound in each cell line was calculated using non-linear curve fitting analysis.

[6] = target: HCC827 (Del E746-A750) (Homo sapiens, UniProt P00533, DEL746-750); test: EGFR target modulation in HCC827 cell line (phospho-EGFR Y1173 ELISA); format: cell-based
Chain of HCC827 (Del E746-A750) (P00533 with tags, fused parts or gaps DEL746-750): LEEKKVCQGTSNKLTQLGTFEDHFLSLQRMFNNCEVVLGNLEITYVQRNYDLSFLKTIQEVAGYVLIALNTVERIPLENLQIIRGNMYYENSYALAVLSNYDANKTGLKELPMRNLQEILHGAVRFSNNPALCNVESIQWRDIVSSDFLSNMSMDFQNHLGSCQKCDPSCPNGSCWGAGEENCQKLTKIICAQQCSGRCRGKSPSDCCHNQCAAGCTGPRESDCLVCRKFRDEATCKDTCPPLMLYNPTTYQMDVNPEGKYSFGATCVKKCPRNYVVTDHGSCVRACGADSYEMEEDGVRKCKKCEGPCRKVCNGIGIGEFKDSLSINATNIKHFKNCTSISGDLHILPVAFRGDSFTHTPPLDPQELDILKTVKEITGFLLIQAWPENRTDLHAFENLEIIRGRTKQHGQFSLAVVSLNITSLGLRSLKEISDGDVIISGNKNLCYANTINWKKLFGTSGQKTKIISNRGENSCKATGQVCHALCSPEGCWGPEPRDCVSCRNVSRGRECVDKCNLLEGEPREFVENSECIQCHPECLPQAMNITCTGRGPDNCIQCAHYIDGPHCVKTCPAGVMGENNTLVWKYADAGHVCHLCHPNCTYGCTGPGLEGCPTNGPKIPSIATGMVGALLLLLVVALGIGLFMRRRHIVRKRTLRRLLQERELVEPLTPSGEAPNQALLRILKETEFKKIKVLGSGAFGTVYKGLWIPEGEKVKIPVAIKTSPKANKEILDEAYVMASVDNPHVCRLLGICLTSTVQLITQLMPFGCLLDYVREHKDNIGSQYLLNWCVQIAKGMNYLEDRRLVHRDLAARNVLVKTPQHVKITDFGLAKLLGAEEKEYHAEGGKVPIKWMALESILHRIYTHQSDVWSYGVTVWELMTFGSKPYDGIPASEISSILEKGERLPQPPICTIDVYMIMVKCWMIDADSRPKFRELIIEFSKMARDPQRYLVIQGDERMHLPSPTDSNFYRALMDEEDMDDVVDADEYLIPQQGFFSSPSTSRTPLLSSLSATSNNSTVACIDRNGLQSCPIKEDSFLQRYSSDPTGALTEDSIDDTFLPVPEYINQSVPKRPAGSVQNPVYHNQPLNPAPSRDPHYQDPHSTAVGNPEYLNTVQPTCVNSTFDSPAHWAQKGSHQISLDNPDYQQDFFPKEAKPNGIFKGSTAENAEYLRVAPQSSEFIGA
Procedure, shortened: as §1

[7] = EGFR (L858R/T790M) with 90 min pre-incubation, read-out: IC50 (μM) Column B
[8] = EGFR (L858R/T790M) with no pre-incubation, read-out: IC50 (μM) Column A

| SMILES | IC50 [1] [nM] | IC50 [2, 7] [µM] | IC50 [2, 8] [µM] | IC50 [3] [nM] | IC50 [4] [nM] | IC50 [5] [nM] | IC50 [6] [nM] |
| --- | --- | --- | --- | --- | --- | --- | --- |
| C=CC(=O)N1CCCC[C@@H](n2c(NC(=O)c3cc(C)nc(C)c3)nc3ccc(OCCN4CCCC4)c(Cl)c32)C1 [Example 15, (R)—N-(1-(1-acryloylazepan-3-yl)-7-chloro-6-(2-(pyrrolidin-1-yl)ethoxy)-1H-benzo[d]imidazol-2-yl)-2,6-dimethylisonicotinamide] | 3 | < 0.001 | 0.004 | 1 |  | 139 | 1 |
| Cc1cc(C(=O)Nc2nc3cccc(Cl)c3n2C2CCCCN(C(=O)/C=C/CN(C)C)C2)cc(P(C)(C)=O)n1 (single isomer, unassigned) [Example 21-9B] | 312 | 0.024 | 0.894 | 314 |  | > 10000 |  |
| Cc1cc(C(=O)Nc2nc3cccc(Cl)c3n2C2CCCCN(C(=O)/C=C/CN(C)C)C2)cc(P(C)(C)=O)n1 (single isomer, unassigned) [Example 21-9A] | 6580 | 3.7 | 32.4 | > 10000 |  | > 10000 |  |
| C=CC(=O)N1CCN(C(=O)OC(C)(C)C)CC(n2c(NC(=O)c3ccnc(C)c3)nc3cccc(Cl)c32)C1 (centres unmarked) [Example 12, tert-butyl 4-acryloyl-6-(7-chloro-2-(2-methylisonicotinamido)-1H-benzo[d]imidazol-1-yl)-1,4-diazepane-1-carboxylate] | 111 | 0.016 | 0.271 | 50 |  | > 10000 |  |
| C=CC(=O)N1CCNCC(n2c(NC(=O)c3ccnc(C)c3)nc3cccc(Cl)c32)C1 (centres unmarked) [Example 13, N-(1-(1-acryloyl-1,4-diazepan-6-yl)-7-chloro-1H-benzo[d]imidazol-2-yl)-2-methylisonicotinamide] | 312 | 0.113 | 1.63 | 113 |  | > 10000 |  |
| CN(C)C/C=C/C(=O)N1CCCCC(n2c(NC(=O)c3ccnc(P(C)(C)=O)c3)nc3cccc(Cl)c32)C1 (single isomer, unassigned) [Example 21-10B] | 77 | 0.014 | 0.222 | 421 |  | 6090 |  |
| Cc1cc(C(=O)Nc2nc3cccc(Cl)c3n2[C@@H]2CCCCN(C(=O)/C=C/C(C)(C)N(C)C)C2)ccn1 [Example 3-18] | 719 | 0.108 | 0.135 | 1050 |  | > 10000 | 480 |
| C=CC(=O)N1CCN(C(C)=O)CC(n2c(NC(=O)c3ccnc(C)c3)nc3cccc(Cl)c32)C1 (centres unmarked) [Example 14, N-(1-(1-acetyl-4-acryloyl-1,4-diazepan-6-yl)-7-chloro-1H-benzo[d]imidazol-2-yl)-2-methylisonicotinamide] | 71 | 0.009 | 0.16 | 27 |  | 2060 |  |
| Cc1cc(C(=O)Nc2nc3cccc(Cl)c3n2[C@@H]2CCCCN(C(=O)/C=C/CN(C3CC3)C3CC3)C2)ccn1 [Example 16, (R,E)-N-(7-chloro-1-(1-(4-(dicyclopropylamino)but-2-enoyl)azepan-3-yl)-1H-benzo[d]imidazol-2-yl)-2-methylisonicotinamide] | 60 | 0.005 | 0.045 | 58 |  | 1100 |  |

Continued, values first:

| IC50 [1] [nM] | IC50 [2, 7] [µM] | IC50 [2, 8] [µM] | IC50 [3] [nM] | IC50 [4] [nM] | IC50 [5] [nM] | IC50 [6] [nM] | SMILES |
| --- | --- | --- | --- | --- | --- | --- | --- |
| 10 | < 0.001 | 0.004 | 2 | 291 | 213 | 2 | CNC/C=C/C(=O)N1CCCC[C@@H](n2c(NC(=O)c3cc(C)nc(C)c3)nc3cccc(Cl)c32)C1 [Example 17-186] |
| 181 | 0.007 | 0.116 | 36 |  | 7120 | 45 | C/C=C/C(=O)N1CCCC[C@@H](n2c(NC(=O)c3cc(C)nc(C)c3)nc3ccc(OCCN4CCCC4)c(Cl)c32)C1 [Example 17-195] |
| 39 | 0.003 | 0.04 | 16 |  | 870 | 10 | Cc1cc(C(=O)Nc2nc3cccc(C(F)(F)F)c3n2[C@@H]2CCCCN(C(=O)/C=C/CN(C)C)C2)cc(C)n1 [Example 17-188] |
| 1 | < 0.001 | 0.003 | 1 |  | 92 | 1 | C=CC(=O)N1CCCC[C@@H](n2c(NC(=O)c3cc(C)nc(C)c3)nc3cc(CN4CCN(C)C(=O)C4)cc(C)c32)C1 [Example 17-180] |
| 2 | < 0.001 | 0.002 | < 1 | 70 | 84 |  | C=CC(=O)N1CCCC[C@@H](n2c(NC(=O)c3cc(C)nc(C)c3)nc3cc(CN4CC[C@@H](F)C4)cc(C)c32)C1 [Example 17-159] |
| 422 | 0.022 | 0.472 | 770 |  | > 10000 |  | Cc1cc(C(=O)Nc2nc3cccc(Cl)c3n2[C@@H]2CCCCN(C(=O)/C=C/CN(C)C)C2)cc(P(C)(C)=O)n1 [Example 17-182] |
| 4840 | 5.84 | 16.1 | 3740 |  | > 10000 |  | Cc1cc(C(=O)Nc2nc3cccc(Cl)c3n2[C@@H]2CCCCN(C(=O)/C=C/CN(C)C(=O)OC(C)(C)C)C2)ccn1 [Example 17-184] |
| 14 | 0.001 | 0.022 | 13 |  | 475 | 2 | Cc1cc(C(=O)Nc2nc3cccc(C(F)(F)F)c3n2[C@@H]2CCCCN(C(=O)/C=C/CN(C)C)C2)ccn1 [Example 17-187] |
| 2 | < 0.001 | 0.002 | < 1 | 82 | 67 |  | C=CC(=O)N1CCCC[C@@H](n2c(NC(=O)c3cc(C)nc(C)c3)nc3cc(CN4CC[C@H](F)C4)cc(C)c32)C1 [Example 17-158] |
| 67 | 0.006 | 0.068 | 41 |  | 576 | 16 | C/C=C/C(=O)N1CCCC[C@@H](n2c(NC(=O)c3ccnc(C)c3)nc3ccc(OCCN4CCCC4)c(Cl)c32)C1 [Example 17-194] |
| 2 | < 0.001 | 0.003 | 2 |  | 37 |  | Cc1cc(C(=O)Nc2nc3cccc(Cl)c3n2[C@@H]2CCCCN(C(=O)/C=C/CNC3(C)CC3)C2)ccn1 [Example 17-192] |
| 202 | 0.01 | 0.21 | 93 | > 10000 | > 10000 |  | C/C=C/C(=O)N1CCCC[C@@H](n2c(NC(=O)c3cc(C)nc(C)c3)nc3cc(CN4CC[C@H](OC)C4)ccc32)C1 [Example 17-174] |
| 1 | < 0.001 | 0.003 | 1 |  | 77 | 1 | C=CC(=O)N1CCCC[C@@H](n2c(NC(=O)c3cc(C)nc(C)c3)nc3cc(CN4CCN(C(C)=O)CC4)cc(C)c32)C1 [Example 17-181] |
| 4 | < 0.001 | 0.004 | 2 | 289 | 522 |  | C=CC(=O)N1CCCC[C@@H](n2c(NC(=O)c3cc(C)nc(C)c3)nc3cc(CN4CC[C@H](OC)C4)ccc32)C1 [Example 17-175] |
| 3 | < 0.001 | 0.003 | 2 |  | 47 |  | Cc1cc(C(=O)Nc2nc3cccc(Cl)c3n2[C@@H]2CCCCN(C(=O)/C=C/CNC3CC3)C2)ccn1 [Example 17-190] |
| 2 | < 0.001 | 0.002 | 1 |  | 44 | 1 | C=CC(=O)N1CCCC[C@@H](n2c(NC(=O)c3ccnc(C)c3)nc3ccc(OCCN4CCCC4)c(Cl)c32)C1 [Example 17-193] |
